The results in this text go back to patent publication US7517858B1, “Prodrugs of pharmaceuticals with improved bioavailability” (The Regents of the University of California, priority 1995, dated 2009).

“Also recorded” adds a separate entry of the source.

Series [1] relates to human cytomegalovirus (HCMV). The experiment in a line: Human cytomegalovirus (HCMV) antiviral susceptibility assay (HCMV DNA hybridization in MRC-5 cells). It is filed as cell-based. Conditions: for antiviral activity compared in words: comparison with PFA / B-PFA; for IC50: HCMV-infected MRC-5 human lung fibroblasts, HCMV DNA after 5 days, mean ± SD (n). As to the method:
Subconfluent MRC-5 cells in 24-well culture dishes were pretreated for 24 hours with various concentrations of drug in MEM medium containing 2% FBS and antibiotics. The media was removed and virus added at a dilution that will result in a 3-4+ cytopathic effect (CPE) in the no-drug wells in five days. This was absorbed for 1 hour at 37° C., aspirated and replaced with the drug dilutions. After five days of incubation HCMV DNA was quantified in triplicate by nucleic acid hybridization using a CMV AntiviraL Susceptibility Test Kit from Diagnostic Hybrids, Inc. (Athens, Ohio). The media was removed and cells lysed according to the manufacturer's instructions.
After absorption of the lysate, the Hybriwix™ filters were hybridized overnight at 60° C. The Hybriwix™ were washed for 30 minutes at 73° C. and counted in a gamma counter. The results are expressed as HCMV DNA as a percentage of the untreated HCMV-infected control cells.

The subject of a further series is HSV-1 virus. Put plainly: HSV antiviral susceptibility assay (HSV DNA hybridization in MRC-5 cells). It counts as cell-based, human herpes simplex virus 1. Conditions: comparison with PFA / B-PFA. As to the method: Subconfluent MRC-5 cells in 24-well culture dishes were inoculated by removing the media and adding HSV-1 virus at a dilution that will result in a 3-4+CPE in the no-drug well in 20-24 hours. This was absorbed for 1 hour at 37° C., aspirated and replaced with various concentrations of drugs in MEM medium containing 2% FBS and antibiotics. After approximately 24 hours of incubation, HSV DNA was quantified in triplicate by nucleic acid hybridization using a HSV Antiviral Susceptibility Test Kit from Diagnostic Hybrids, Inc. (Athens, Ohio). The media was removed and cells lysed according to the manufacturer's instructions. After absorption of the lysate, the Hybriwix™ filters were hybridized overnight at 60° C. The Hybriwix™ were washed for 30 minutes at 73° C. and counted in a gamma counter. The results are expressed as a percentage of the untreated HSV-infected control cells.

Series [2] relates to human immunodeficiency virus-1. The experiment in a line: Plaque reduction assay for HIV-1 replication in HT4-6C cells. Conditions: comparison with PFA / B-PFA / BB-PFA. It is filed as cell-based. As to the method:
HT4-6C cells and plaque reduction assay, CD4-expressing HeLa cells, HT4-6C cells (Chesebro, B. and K. Wehrly (1988) J. Virol. 62:3779-3788), were obtained from Bruce Chesebro, Hamilton, Mont. The effect of antiviral compounds on HIV replication was measured by a plaque reduction assay. Briefly, monolayers of HT4-6C cells were infected with 100 to 300 PFU of virus per well in 24-well microdilution plates. Various concentrations of drug were added to the culture medium, Dulbecco's Modified Eagle Medium containing 5% fetal bovine serum and antibiotics, as noted above. After 3 days at 37° C., the monolayers were fixed with 10% formaldehyde solution in phosphate-buffered saline and stained with 0.25% crystal violet to visualize virus plaques (Larder, B. et al. (1989) Science 243:1731-1734). Antiviral activity was assessed as the percentage of control Plaques measured in drug-treated samples.
(In general: In a plaque reduction assay, fewer plaques than in the control indicate reduced infectivity or spread.)

Series [3] can be described thus: Tissue distribution 24 h after oral administration of 14C-PFA lipid prodrugs to mice. It counts as in vivo. Conditions: oral gavage 20 mg/kg in liposomes, 14C radioactivity (FIG. 2). As to the method: 1-O-Octadecyl-sn-glycero-3-PFA[^14C] and 1-O-octadecyl-2-O-methyl-sn-glycero-3-PFA[^14C] (30 microcuries/micromole) were dried with dioleoylphosphatidylcholine/cholesterol/drug in a molar ratio of 60/30/10 in a nitrogen stream, lyophilized overnight and isotonic sorbitol was added. After vortexing and warming, the vessel was sonicated at maximum output in a Heat Systems cup and horn sonicator for one hour. The resulting liposome preparation was filtered through a 0.2 micron filter and administered to mice by oral gavage in a dose of 20 mg/kg of the respective PFA lipid prodrugs. After 24 hours the animals were sacrificed and tissues removed, blotted dry, weighed and homogenized. Aliquots were counted and the amount of radioactivity determined. The results are expressed as nanomoles of lipid prodrug PFA[^14C] per gm tissue.

The test system of series [4] is Rauscher leukemia virus complex (RLV). Put plainly: Treatment of Rauscher leukemia virus-infected mice (spleen weight). It counts as in vivo. Conditions: for effective doses (ED50): RLV-infected BALB/C mice, 21 days oral, prodrug by gavage once a day, AZT in drinking water, spleen weight day 23. The source says:
1-O-Octadecyl-sn-glycero-3-phospho-AZT was compared to free AZT in treating mice infected with Rauscher murine leukemia virus (RLV). RLV is a murine retrovirus, and RLV-infected mice are useful as a model system for evaluating therapeutic effectiveness of candidate anti-AIDS drugs against retrovirus induced disease in vivo. […] Effective antiviral agents inhibit the splenomegaly, and a reduction in organ weight correlates with the elimination of virus (Ruprecht, R., et al., Nature 323:467-469 (1986)). […] The closest practical approach to optimum administration is the intake of AZT in drinking water.
Female BALB/C mice were infected with 1×10^4 plaque-forming units (PFU) of Rauscher leukemia virus complex (RLV) on day 0. Control animals were injected with saline. Beginning on day 2, groups of the infected mice as indicated in FIG. 1 were treated with AZT at doses from about 11.0 mg/kg/day to 15.0 mg/kg/day for 21 days either by offering AZT in drinking water or by gavaging with 1-O-octadecyl-sn-glycero-3-P-AZT once a day. On day 23 post-inoculation, the mice in both treatment protocols were sacrificed, and the spleen weights of the animals were determined. The mean spleen weights, indicating relative level of virus infection, for each dose level in the two protocols, are represented in the bar graphs of FIG. 1.

For `CCCCCCCCCCCCCCCCCCOC[C@H](COP(=O)(O)C(=O)O)OC` [MB-PFA, 1-O-octadecyl-2-O-methyl-sn-glycero-3-phosphonoformate], the “antiviral activity compared in words” value in series [1] (HCMV) was “equivalent in antiviral activity to B-PFA”; with HSV-1 virus, “more active than B-PFA”; in series [2], “significantly more active than B-PFA and BB-PFA; also recorded: more active than B-PFA to a statistically significant degree”. In addition, in series [3], the “drug levels in the small intestine” value is “lower in the small intestine”. In series [3], the “tissue levels of drug” value was “higher tissue levels of drug were observed in liver, spleen, lung, brain, kidney and lymph node”.

On to `CCCCCCCCCCCCCCCCCCOC[C@@H](O)COP(=O)(O)C(=O)O` [B-PFA, 1-O-octadecyl-sn-glycero-3-phosphonoformate], for which the “tissue levels of drug” value in series [3] was “lower levels of drug in most tissues studied including liver, spleen, jejunum and ileum”.

The IC50 is the concentration that inhibits the measured activity by half. Low values mean higher potency, high ones lower potency. `CCCCCCCCCCCCCCCCCCOC[C@H](COP(=O)(O)C(=O)O)OCc1ccccc1` [BB-PFA, 1-O-octadecyl-2-O-benzyl-sn-glycero-3-phosphonoformate]: inhibition in series [1] was half-maximal at 0.54 ± 0.65 µM (IC50). For the same molecule, the “antiviral activity compared in words” value in series [1] (HCMV) is listed as “equivalent in antiviral activity to B-PFA”.

Take `CCCCCCCCCCCCCCCCCCOCC(COP(=O)(O)C(=O)O)(OC)OC` [ODDMOP-PFA, 1-O-octadecyl-2,2-dimethoxypropane-3-phosphonoformate]: in series [1], the IC50 was found to be 0.22 ± 0.14 µM. For the same molecule, the “antiviral activity compared in words” value in series [1] (HCMV) is “substantially more active”. Moreover, the “FOLD INCREASE IN ACTIVITY” value in series [1] (versus PFA, HCMV) was determined as 209 fold.

Take `CCCCCCCCCCCCCCCCCCOC[C@@H](O)COP(=O)(O)OC[C@H]1O[C@@H](n2cc(C)c(=O)[nH]c2=O)C[C@@H]1N=[N+]=[N-]` [1-O-octadecyl-sn-glycero-3-P-AZT, 1-O-Octadecyl-sn-glycero-3-phospho-3′-azido-3′-deoxythymidine]: the “effective doses (ED50)” value in series [4] was “comparable”. Besides, the “inhibition of splenomegaly, effectiveness” value in series [4] (RLV-infected mice, once a day gavage versus free AZT in drinking water (FIG. 1)) is listed as “as effective, in comparable doses, as virtually continuous free AZT administration”.

As for `Cc1cn([C@H]2C[C@H](N=[N+]=[N-])[C@@H](CO)O2)c(=O)[nH]c1=O` [AZT, 3′-azido-3′-deoxythymidine, reference compound], the “effective doses (ED50)” value in series [4] is reported as “comparable”.
